Laboratory results from ChEMBL document CHEMBL3085695, “Novel state-dependent voltage-gated sodium channel modulators, based on marine alkaloids from Agelas sponges” (Eur J Med Chem, 2013).

Legend:
[1] = target: Sodium channel protein type 3 subunit alpha (Homo sapiens, UniProt Q9NY46); experiment: Modulation of human Nav1.3 by automated patch clamp electrophysiology assay
[2] = target: Sodium channel protein type 5 subunit alpha (Homo sapiens, UniProt Q14524); experiment: Modulation of human Nav1.5 by automated patch clamp electrophysiology assay
Chain of Sodium channel protein type 5 subunit alpha (Q14524 whole entry): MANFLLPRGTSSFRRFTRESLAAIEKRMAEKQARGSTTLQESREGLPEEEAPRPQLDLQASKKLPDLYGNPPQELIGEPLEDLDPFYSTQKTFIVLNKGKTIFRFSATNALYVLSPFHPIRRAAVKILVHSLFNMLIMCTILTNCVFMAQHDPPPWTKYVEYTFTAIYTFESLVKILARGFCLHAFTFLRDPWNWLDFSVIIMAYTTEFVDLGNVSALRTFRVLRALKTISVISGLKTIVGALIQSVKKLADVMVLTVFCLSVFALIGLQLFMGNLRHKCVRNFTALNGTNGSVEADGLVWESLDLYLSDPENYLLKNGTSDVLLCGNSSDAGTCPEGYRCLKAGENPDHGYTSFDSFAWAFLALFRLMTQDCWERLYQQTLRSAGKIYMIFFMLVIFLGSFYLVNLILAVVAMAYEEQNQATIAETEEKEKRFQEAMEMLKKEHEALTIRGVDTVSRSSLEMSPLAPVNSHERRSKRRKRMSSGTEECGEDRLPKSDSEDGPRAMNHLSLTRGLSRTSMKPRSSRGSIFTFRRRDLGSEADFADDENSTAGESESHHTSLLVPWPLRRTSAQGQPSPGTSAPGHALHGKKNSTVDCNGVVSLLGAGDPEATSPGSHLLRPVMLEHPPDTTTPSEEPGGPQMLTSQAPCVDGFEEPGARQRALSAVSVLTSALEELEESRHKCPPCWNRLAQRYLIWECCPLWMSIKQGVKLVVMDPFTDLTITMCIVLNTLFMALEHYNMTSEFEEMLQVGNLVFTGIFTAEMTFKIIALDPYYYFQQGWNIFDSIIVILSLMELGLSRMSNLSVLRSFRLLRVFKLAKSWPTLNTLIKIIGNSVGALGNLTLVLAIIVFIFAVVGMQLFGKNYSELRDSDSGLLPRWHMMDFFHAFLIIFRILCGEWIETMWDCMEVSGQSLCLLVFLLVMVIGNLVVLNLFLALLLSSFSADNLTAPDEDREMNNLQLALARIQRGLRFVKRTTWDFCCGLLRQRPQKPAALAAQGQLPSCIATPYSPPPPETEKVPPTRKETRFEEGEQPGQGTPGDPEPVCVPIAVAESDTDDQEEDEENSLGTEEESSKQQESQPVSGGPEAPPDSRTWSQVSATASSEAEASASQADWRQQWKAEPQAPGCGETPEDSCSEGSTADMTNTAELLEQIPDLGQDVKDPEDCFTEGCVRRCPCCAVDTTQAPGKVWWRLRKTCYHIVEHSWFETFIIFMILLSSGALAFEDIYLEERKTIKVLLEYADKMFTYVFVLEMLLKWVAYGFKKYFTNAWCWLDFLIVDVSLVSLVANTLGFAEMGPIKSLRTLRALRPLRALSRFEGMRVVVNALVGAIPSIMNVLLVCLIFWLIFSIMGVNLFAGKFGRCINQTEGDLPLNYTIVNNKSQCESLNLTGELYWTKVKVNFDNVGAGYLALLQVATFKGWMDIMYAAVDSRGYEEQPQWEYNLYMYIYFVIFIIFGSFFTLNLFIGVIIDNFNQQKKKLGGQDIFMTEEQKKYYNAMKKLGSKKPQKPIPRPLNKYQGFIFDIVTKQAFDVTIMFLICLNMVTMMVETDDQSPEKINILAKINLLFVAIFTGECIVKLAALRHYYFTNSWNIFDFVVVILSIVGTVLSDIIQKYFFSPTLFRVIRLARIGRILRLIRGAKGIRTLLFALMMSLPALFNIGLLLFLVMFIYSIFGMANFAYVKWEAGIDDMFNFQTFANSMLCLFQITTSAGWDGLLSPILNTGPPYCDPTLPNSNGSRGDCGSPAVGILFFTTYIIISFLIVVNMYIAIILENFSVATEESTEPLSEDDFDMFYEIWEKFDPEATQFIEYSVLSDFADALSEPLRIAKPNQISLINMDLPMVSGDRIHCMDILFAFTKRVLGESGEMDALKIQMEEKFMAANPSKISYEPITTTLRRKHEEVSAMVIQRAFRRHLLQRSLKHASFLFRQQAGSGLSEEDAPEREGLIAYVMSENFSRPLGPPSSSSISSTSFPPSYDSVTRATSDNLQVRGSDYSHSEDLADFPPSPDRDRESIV

[3] = target: Sodium channel protein type 9 subunit alpha (Homo sapiens, UniProt Q15858); experiment: Modulation of human Nav1.7 by automated patch clamp electrophysiology assay
Chain of Sodium channel protein type 9 subunit alpha (Q15858 whole entry): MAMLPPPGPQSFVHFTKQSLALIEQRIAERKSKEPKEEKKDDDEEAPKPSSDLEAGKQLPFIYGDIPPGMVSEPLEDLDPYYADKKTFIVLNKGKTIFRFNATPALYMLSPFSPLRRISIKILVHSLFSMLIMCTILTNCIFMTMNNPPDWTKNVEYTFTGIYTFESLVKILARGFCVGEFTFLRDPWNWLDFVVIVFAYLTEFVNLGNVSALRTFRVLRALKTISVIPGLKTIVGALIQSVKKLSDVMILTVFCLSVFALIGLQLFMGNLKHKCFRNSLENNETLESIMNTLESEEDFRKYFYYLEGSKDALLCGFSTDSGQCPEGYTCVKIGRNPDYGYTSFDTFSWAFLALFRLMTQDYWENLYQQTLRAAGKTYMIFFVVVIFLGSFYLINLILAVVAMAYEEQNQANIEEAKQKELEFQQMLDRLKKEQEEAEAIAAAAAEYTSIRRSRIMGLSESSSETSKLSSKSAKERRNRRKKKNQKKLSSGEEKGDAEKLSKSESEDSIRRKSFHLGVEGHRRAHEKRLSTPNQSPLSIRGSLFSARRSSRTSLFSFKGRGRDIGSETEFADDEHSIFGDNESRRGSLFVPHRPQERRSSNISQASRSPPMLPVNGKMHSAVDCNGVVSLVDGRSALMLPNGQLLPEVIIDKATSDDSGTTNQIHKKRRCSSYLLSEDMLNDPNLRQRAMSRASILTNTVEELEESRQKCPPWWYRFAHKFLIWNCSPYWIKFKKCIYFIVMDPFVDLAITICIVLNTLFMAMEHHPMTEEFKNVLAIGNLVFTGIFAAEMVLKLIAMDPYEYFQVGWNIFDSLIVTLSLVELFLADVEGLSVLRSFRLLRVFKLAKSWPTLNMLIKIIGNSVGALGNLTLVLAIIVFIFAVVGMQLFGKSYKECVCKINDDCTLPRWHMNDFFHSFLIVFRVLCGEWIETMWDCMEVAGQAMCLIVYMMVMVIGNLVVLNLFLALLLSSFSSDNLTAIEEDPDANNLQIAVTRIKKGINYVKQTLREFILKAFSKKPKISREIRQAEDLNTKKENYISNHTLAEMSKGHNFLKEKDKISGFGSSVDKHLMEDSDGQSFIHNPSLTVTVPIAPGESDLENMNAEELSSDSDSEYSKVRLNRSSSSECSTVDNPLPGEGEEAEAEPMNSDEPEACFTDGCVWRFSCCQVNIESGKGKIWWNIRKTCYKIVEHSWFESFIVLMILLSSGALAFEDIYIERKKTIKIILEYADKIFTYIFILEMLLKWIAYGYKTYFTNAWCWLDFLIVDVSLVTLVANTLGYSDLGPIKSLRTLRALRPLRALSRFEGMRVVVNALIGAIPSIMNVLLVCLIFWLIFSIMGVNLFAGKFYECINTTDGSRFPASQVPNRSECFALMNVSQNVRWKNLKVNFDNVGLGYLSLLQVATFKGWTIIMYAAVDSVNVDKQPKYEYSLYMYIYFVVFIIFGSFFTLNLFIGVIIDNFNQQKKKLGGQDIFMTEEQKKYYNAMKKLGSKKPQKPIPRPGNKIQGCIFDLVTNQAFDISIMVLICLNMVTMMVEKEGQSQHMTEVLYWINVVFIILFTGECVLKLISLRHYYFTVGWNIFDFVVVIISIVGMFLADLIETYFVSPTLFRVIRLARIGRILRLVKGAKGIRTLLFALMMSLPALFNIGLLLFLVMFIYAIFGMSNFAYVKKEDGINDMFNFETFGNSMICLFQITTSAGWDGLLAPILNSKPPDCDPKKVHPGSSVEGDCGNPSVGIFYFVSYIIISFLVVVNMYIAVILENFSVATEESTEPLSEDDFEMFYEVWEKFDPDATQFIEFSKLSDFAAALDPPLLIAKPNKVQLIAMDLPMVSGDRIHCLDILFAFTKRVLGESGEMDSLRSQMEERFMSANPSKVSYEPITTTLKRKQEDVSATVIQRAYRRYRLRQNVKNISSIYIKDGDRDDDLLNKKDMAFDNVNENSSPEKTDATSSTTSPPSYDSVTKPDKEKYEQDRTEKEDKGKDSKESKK

[4] = target: Sodium channel protein type 4 subunit alpha (Homo sapiens, UniProt P35499); experiment: Modulation of human Nav1.4 by automated patch clamp electrophysiology assay

SMILES	IC50 [1] [µM]	IC50 [3] [µM]	IC50 [4] [µM]	IC50 [2] [µM]
Cn1cccc1C(=O)N[C@H]1CCc2nc(N)sc2C1	24	> 30	16	> 30
Nc1nc2c(s1)C[C@@H](NC(=O)[C@@H]1CCCN1)CC2	> 30	> 30	25	> 30
CC(C)(C)OC(=O)N1CCC[C@H]1C(=O)N[C@H]1CCc2nc(N)sc2C1	> 30	> 30	8	> 30
Nc1nc2c(s1)C[C@@H](NC(=O)c1cc(Br)c[nH]1)CC2	26	18	> 30	21
Nc1nc2c(s1)C[C@@H](NC(=O)c1cc(Br)c(Br)[nH]1)CC2	26	16	15	> 30
Nc1nc2c(s1)C[C@@H](NC(=O)c1ccc[nH]1)CC2	> 30	21	> 30	> 30

More lines, main results first:

IC50 [1] [µM]	IC50 [3] [µM]	IC50 [4] [µM]	SMILES	IC50 [2] [µM]
25	21	30	Nc1nc2c(s1)C[C@@H](NCc1ccc[nH]1)CC2	> 30
> 30	> 30	> 30	Nc1nc2c(s1)CC(CNC(=O)[C@@H]1CCCN1)CC2 (stereo partly specified)	> 30
16	23	21	Nc1nc2c(s1)CC(CNC(=O)c1cc3ccccc3[nH]1)CC2 (stereo unspecified)	> 30
> 30	29	16	Nc1nc2c(s1)C[C@@H](NC(=O)c1cc3ccccc3[nH]1)CC2	> 30
26	> 30	> 30	CC(C)(C)OC(=O)N1CCC[C@H]1C(=O)NCC1CCc2nc(N)sc2C1 (stereo partly specified)	20
28	20	> 30	Nc1nc2c(s1)CC(CNC(=O)c1ccc[nH]1)CC2 (stereo unspecified)	21
18	23	> 30	Nc1nc2c(s1)CC(CNC(=O)c1cc(Br)c(Br)[nH]1)CC2 (stereo unspecified)	> 30
27	> 30	> 30	Nc1nc2c(s1)C[C@@H](NC(=O)c1ccco1)CC2	> 30
